In brackets after ≈: the same amount, converted by molar mass. Several values for one entry are separate records, joined by “and”; a condition that tells them apart may be missing. Equal entries are not always repeated.
Legend:
[1] = tested on: U937RF, a protease resistant strain; experiment: Long term in vitro study, U937RF, reverse transcriptase; assay type: cell-based, HIV
Description: A microtiter-based reveres transcriptase (RT) reaction is utilized (Buckheit et al (1991) AIDS Research and Human Retroviruses 7:295-302). Tritiated thymidine triphosphate (NEN)(TTP) is resuspended in distilled water at 5 Ci/ml. Poly rA and oligo dT are prepared as a stock solution which is kept at −20° C. The RT reaction buffer is prepared fresh on a daily basis and consists of 125 μl 1M EGTA, 125 μl water, 125 μl Triton X-100, 50 μl Tris (pH 7.4), 50 μl 1 MDDT, and 40 μl 1M MgCl2. These three solutions are mixed together in a ratio of 1 part TTP, 2.5 parts poly rA:oligo dT, 2.5 parts reaction buffer and 4 parts distilled water. Ten microliters of this reaction mixture is placed in a round bottom microtiter place and 15 μl of virus containing supernatant is added and mixed. The plate is incubated at 37° C. for 60 minutes. Following reaction, the reaction volume is spotted onto filter mats, washed 6 times for 5 minutes each in a 5% sodium phosphate buffer, 2 times for 1 minute each in distilled water, 2 times for 1 minute each in 70% ethanol, and then dried. The dried filter mat is placed in a plastic sample bag, Betaplate scintillation fluid is added and the bag is heat sealed. Incorporated radioactivity is quantified utilizing a Wallac Microbeta scintillation counter.
Acute infection of most established human cell lines with HIV-1 results in the eventual establishment of a constitutive virus-producing chronically infected cell line. The cells can be passaged for long periods of time in culture without loss of virus production. These cells may be utilized to evaluate the effects of anti-HIV compounds on syncytium formation or to evaluate the effects of anti-HIV compounds on levels of virus production from these cells. […] Each of the cells contains an integrated HIV genome or provirus. Chronically infected CEM, H9 and U937 cell lines have been prepared and cultured by Southern Research Institute, Frederick Md. and are available from them.
CEM-SS cells chronically infected with HIV isolate, for example SKI (CEM-SKI) are cultured in RPMI1640 tissue culture medium supplemented with 10% fetal bovine serum and antibiotics. […] CEM-SKI or other infected cells with no added drug are used as the control cells. Cells are allowed to grow to a density of approximately 1×10^6 cells/ml and are then passaged at a 1:10 dilution. […] The drug concentration in the flask is then increased two-fold and the cells maintained as above.
The cell populations contain integrated copies of the HIV genome and constitutively produce HIV at relatively high levels or are latently infected and only produce virus after stimulation with phorbol esters, tumor necrosis factor or IL6 (U1 and ACH2). Reductions in virus products were observed when quantifying supernatant reverse transcriptase activity,
A long term in vitro study of 2-(2-thienyl)-imidazolo [4,5-b]pyridine against U937RF, a protease resistant strain, was conducted at three different levels. The results with U937RF cells were reported at weekly intervals.

[2] = tested on: hepatitis B, HEPG22.2.15; experiment: In vitro virus production test of hepatitis B, DNA copy number; assay type: cell-based

Q: How did the reverse transcriptase data ([1]; 7 μg/ml, day 4) turn out when `c1csc(-c2nc3cccnc3[nH]2)c1` [2-(2-thienyl)-imidazolo [4,5-b]pyridine] was run?
A: Its reverse transcriptase data is 9711.

Q: What about the reverse transcriptase data ([1]; 7 μg/ml, day 11) of the same compound?
A: Its reverse transcriptase data is 9974.

Q: And the reverse transcriptase data ([1]; 7 μg/ml, day 18)?
A: The reverse transcriptase data was 7462.

Q: And the reverse transcriptase data ([1]; 7 μg/ml, day 25)?
A: The reverse transcriptase data was 6952.

Q: And the reverse transcriptase data ([1]; 7 μg/ml, day 32)?
A: Its reverse transcriptase data is 9161.

Q: And the reverse transcriptase data ([1]; 7 μg/ml, day 39)?
A: Its reverse transcriptase data is 11155.

Q: And the reverse transcriptase data ([1]; 7 μg/ml, day 46)?
A: The reverse transcriptase data was 5178.

Q: What about the reverse transcriptase data ([1]; 7 μg/ml, day 53) of the same compound?
A: The reverse transcriptase data was 5878.

Q: What about the reverse transcriptase data ([1]; 7 μg/ml, day 60) of the same compound?
A: The reverse transcriptase data was 7586.

Q: And the reverse transcriptase data ([1]; 7 μg/ml, day 67)?
A: Its reverse transcriptase data is 6678.

Q: And the reverse transcriptase data ([1]; 7 μg/ml, day 71)?
A: The reverse transcriptase data was 7299.

Q: And the reverse transcriptase data ([1]; 7 μg/ml, day 74)?
A: Its reverse transcriptase data is 5927.

Q: What about the reverse transcriptase data ([1]; 7 μg/ml, day 88) of the same compound?
A: Its reverse transcriptase data is 6996.

Q: What about the reverse transcriptase data ([1]; 7 μg/ml, day 95) of the same compound?
A: The reverse transcriptase data was 5624.

Q: What about the reverse transcriptase data ([1]; 7 μg/ml, day 102) of the same compound?
A: The reverse transcriptase data was 6002.

Q: And the reverse transcriptase data ([1]; 7 μg/ml, day 109)?
A: Its reverse transcriptase data is 13890.

Q: And the reverse transcriptase data ([1]; 15 μg/ml, day 4)?
A: The reverse transcriptase data was 6397.

Q: What about the reverse transcriptase data ([1]; 15 μg/ml, day 11) of the same compound?
A: Its reverse transcriptase data is 8051.

Q: What about the reverse transcriptase data ([1]; 15 μg/ml, day 18) of the same compound?
A: The reverse transcriptase data was 7932.

Q: What about the reverse transcriptase data ([1]; 15 μg/ml, day 25) of the same compound?
A: Its reverse transcriptase data is 5229.

Q: And the reverse transcriptase data ([1]; 15 μg/ml, day 32)?
A: Its reverse transcriptase data is 7277.

Q: What about the reverse transcriptase data ([1]; 15 μg/ml, day 39) of the same compound?
A: The reverse transcriptase data was 12487.

Q: And the reverse transcriptase data ([1]; 15 μg/ml, day 46)?
A: The reverse transcriptase data was 4703.

Q: What about the reverse transcriptase data ([1]; 15 μg/ml, day 53) of the same compound?
A: The reverse transcriptase data was 4960.

Q: What about the reverse transcriptase data ([1]; 15 μg/ml, day 60) of the same compound?
A: The reverse transcriptase data was 7952.

Q: What about the reverse transcriptase data ([1]; 15 μg/ml, day 67) of the same compound?
A: Its reverse transcriptase data is 6417.

Q: What about the reverse transcriptase data ([1]; 15 μg/ml, day 71) of the same compound?
A: Its reverse transcriptase data is 7016.

Q: And the reverse transcriptase data ([1]; 15 μg/ml, day 74)?
A: Its reverse transcriptase data is 5903.

Q: What about the reverse transcriptase data ([1]; 15 μg/ml, day 88) of the same compound?
A: Its reverse transcriptase data is 5887.

Q: What about the reverse transcriptase data ([1]; 15 μg/ml, day 95) of the same compound?
A: Its reverse transcriptase data is 4602.

Q: What about the reverse transcriptase data ([1]; 15 μg/ml, day 102) of the same compound?
A: The reverse transcriptase data was 5229.

Q: What about the reverse transcriptase data ([1]; 15 μg/ml, day 109) of the same compound?
A: The reverse transcriptase data was 5718.

Q: What about the reverse transcriptase data ([1]; 30 μg/ml, day 4) of the same compound?
A: Its reverse transcriptase data is 4841.

Q: And the reverse transcriptase data ([1]; 30 μg/ml, day 11)?
A: Its reverse transcriptase data is 5389.

Q: What about the reverse transcriptase data ([1]; 30 μg/ml, day 18) of the same compound?
A: The reverse transcriptase data was 6988.

Q: What about the reverse transcriptase data ([1]; 30 μg/ml, day 25) of the same compound?
A: Its reverse transcriptase data is 6061.

Q: And the reverse transcriptase data ([1]; 30 μg/ml, day 32)?
A: Its reverse transcriptase data is 7572.

Q: And the reverse transcriptase data ([1]; 30 μg/ml, day 39)?
A: Its reverse transcriptase data is 8558.

Q: And the reverse transcriptase data ([1]; 30 μg/ml, day 46)?
A: Its reverse transcriptase data is 3065.

Q: And the reverse transcriptase data ([1]; 30 μg/ml, day 53)?
A: Its reverse transcriptase data is 3643.

Q: And the reverse transcriptase data ([1]; 30 μg/ml, day 60)?
A: The reverse transcriptase data was 3445.

Q: And the reverse transcriptase data ([1]; 30 μg/ml, day 67)?
A: The reverse transcriptase data was 4368.

Q: And the reverse transcriptase data ([1]; 30 μg/ml, day 71)?
A: The reverse transcriptase data was 1498.

Q: What about the reverse transcriptase data ([1]; 30 μg/ml, day 74) of the same compound?
A: The reverse transcriptase data was 3639.

Q: And the reverse transcriptase data ([1]; 30 μg/ml, day 88)?
A: Its reverse transcriptase data is 2697.

Q: What about the reverse transcriptase data ([1]; 30 μg/ml, day 95) of the same compound?
A: The reverse transcriptase data was 2442.

Q: And the reverse transcriptase data ([1]; 30 μg/ml, day 102)?
A: The reverse transcriptase data was 2815.

Q: What about the reverse transcriptase data ([1]; 30 μg/ml, day 109) of the same compound?
A: The reverse transcriptase data was 2095.

Q: What about the “reverse transcriptase data on continuation (in words)” value ([1]; run through 242 days) of the same compound?
A: Its value is “data remained consistent”.

Q: What about the “DNA Copy Number, % virus control” value ([2]; 0.64 μg/ml) of the same compound?
A: Its value is 75.3%.

Q: And the “DNA Copy Number, mean” value ([2]; 0.64 μg/ml)?
A: The value was 255.6 per 3 μl.

Q: And the “DNA Copy Number, samples 1-3” value ([2]; 0.64 μg/ml)?
A: Its value is 249.2 per 3 μl and 255.9 per 3 μl and 261.6 per 3 μl.

Q: What about the “DNA Copy Number, % virus control” value ([2]; 2 μg/ml) of the same compound?
A: The value was 39.8%.

Q: And the “DNA Copy Number, mean” value ([2]; 2 μg/ml)?
A: The value was 134.8 per 3 μl.

Q: What about the “DNA Copy Number, samples 1-3” value ([2]; 2 μg/ml) of the same compound?
A: Its value is 134.5 per 3 μl and 124.2 per 3 μl and 145.8 per 3 μl.

Q: What about the “DNA Copy Number, % virus control” value ([2]; 6.4 μg/ml) of the same compound?
A: Its value is 8.2%.

Q: And the “DNA Copy Number, mean” value ([2]; 6.4 μg/ml)?
A: Its value is 27.9 per 3 μl.

Q: And the “DNA Copy Number, % virus control” value ([2]; 20 μg/ml)?
A: The value was 0.8%.

Q: What about the “DNA Copy Number, mean” value ([2]; 20 μg/ml) of the same compound?
A: The value was 2.7 per 3 μl.

Q: What about the “DNA Copy Number, % virus control” value ([2]; 64 μg/ml) of the same compound?
A: The value was 0.1%.

Q: And the “DNA Copy Number, mean” value ([2]; 64 μg/ml)?
A: Its value is 0.4 per 3 μl.

Q: And the “DNA Copy Number, % virus control” value ([2]; 200 μg/ml)?
A: The value was 0%.

Q: What about the “DNA Copy Number, mean” value ([2]; 200 μg/ml) of the same compound?
A: The value was 0.1 per 3 μl.

Q: And the IC50 ([2]; HepG2 2.2.15, first experiment)?
A: The IC50 was 1.6 µg/mL (≈ 7.95 µM).

Q: And the IC50 ([2]; HepG2 2.2.15, replicate experiment)?
A: Its IC50 is 10.7 µg/mL (≈ 53.2 µM).
